Measured values as given in US20240002424A1, “HEXOSAMINE COMPOUNDS AND METHODS THEREOF” (National Institute of Immunology, priority 2021, published 2024).

How the values were obtained:
[1] = system: HL-60 cells; test: Total and glycoside bound sialic acids by periodate-resorcinol assay; assay type: cell-based, human; settings: 100 μM, 48 h
Protocol: Total sialic acids were measured following reported procedures. HL-60 cells (3.0×10^5 cells/mL in 10 mL complete medium in 10 cm diameter Petri dishes) were incubated with D, 1a, 1b, 1c, 1d, 1e, 1f, 1g, 2a, or 2b (100 mM each), along with untreated (U) controls. After 48 h, cells were harvested, washed with PBS (3×5.0 mL; 3000×g, for 2.0 min), aliquoted to 2×10^6 cells per sample and resuspended in PBS (150 mL) in 1.5 mL microcentrifuge tubes. Cells were lyzed by three freeze-thaw cycles and the total lysates were subjected to periodate-resorcinol assay. Briefly, lysates (150 mL) were treated with 0.4 M aqueous periodic acid (6.67 mM) or (2.5 mL) and incubated either on ice for 15 min (for measurement of total sialic acids) or at 37° C. for 1.0 h (for measurement of glycoconjugate bound sialic acids). About 10 mL of reagent cocktail was prepared using 6% w/v of aqueous resorcinol (1.0 mL), 2.5 mM copper (II) sulfate (1.0 mL), 44% of concentrated hydrochloric acid (4.4 mL), and water (3.6 mL). The mixture was then treated with the reagent cocktail (250 mL per sample), boiled at 100° C. for 10 min, rapidly quenched in an ice-bath and treated with tert-butanol (250 mL). The contents were centrifuged and the supernatants were aliquoted (200 mL) into 96-well plates and the absorbance at 630 nm was measured. At least three replicates were prepared for each condition.

[2] = system: neural cell adhesion molecules (NCAM); settings: cited from earlier work
[3] = system: HL-60 cells; test: Western blot of total lysates for sLeX (CSLEX1) epitopes; assay type: cell-based, human; settings: HL-60 total lysates; 50 μM, 72 h
Protocol: Effect of ManNAc analogues on expression of CD15s epitopes: HL-60 cells (3.0×10^5 cells/mL in 10 mL complete medium in 10 cm diameter petri dishes) were incubated with D, 1a, 1b, 1d, 1e, 1f, or 1g (50 mM), along with untreated (U) controls. After 72 h, cells were harvested, washed with PBS (3×5.0 mL), and lysed in RIPA buffer (10^7 cells in […]), containing protease inhibitor cocktail (PIC, 1:100). Protein concentration of the soluble fraction was estimated using the Bradford assay. Proteins from total lysates were resolved by 7.5% SDS-PAGE and blotted onto nitrocellulose membrane (constant current of 250 mA for 3.0 h at 4° C.). Membranes were blocked using non-fat milk (NFM) (5.0% w/v) in PBS and incubated with primary antibodies (5.0 mL PBS containing 5.0% NFM) overnight at 4° C. Membranes were washed with 0.1% PBS-T (0.1% v/v tween-20 in PBS; 3×5.0 mL, five min each at room temperature) followed by incubation with appropriate fluorophore or horse radish peroxidase (HRP) conjugated secondary antibodies for 1.0 h at room temperature. Membranes were washed with 0.1% PBS-T (3×5.0 mL, five min each) and then either directly scanned using Amersham Typhoon fluorescence scanner or developed on photographic films after treatment with enhanced chemiluminescence reagents. At least two independent replicate experiments were performed for all the blots.
The primary and secondary antibodies employed, along with dilution and stock concentration, are given below: Primary antibodies: Anti-CD15s (CSLEX1; IgM, dilution 1:5000; stock concentration 0.5 mg/mL) Anti-CLA (HECA452; IgM, dilution 1:1000, stock concentration 0.5 mg/mL) […] (AC15, IgG, dilution 1:20000, stock concentration 2.2 mg/mL); and Secondary Antibodies: AlexaFluor488-conjugated anti-mouse IgM (1:10000, stock concentration 2.0 mg/mL) AlexaFluor488-conjugated anti-rat IgM (1:10000, stock concentration 0.5 mg/mL) HRP-conjugated anti-mouse IgG (1:10000, stock concentration 0.8 mg/mL) Cy5-conjugated donkey anti-mouse IgG (1:10000, stock concentration 1.4 mg/mL) AlexaFluorplus488-conjugated anti-mouse IgG (1:10000, stock conc. 2.0 mg/mL).

[4] = system: HL-60 cells; test: NeuAz expression by SPAAC with DBCO-Cy5 and flow cytometry, competition with 1c; assay type: cell-based, human; settings: 50 μM with 1c 50 μM, 24 h
Protocol: Estimation of NeuAz expression by 1c in the presence of peracetylated ManNAc analogues: Jurkat cells (3.0×10^5 cells/mL in 3.0 mL per well in 6-well plates) were incubated with (i) D, (ii) 1a, 1b, 1c, or 1d alone (50 mM) or (iii) 1a, 1b, or 1d (50 mM) in combination with 1c (50 mM). After 24 h, cells were harvested, washed using FSB, aliquoted to 5.0×10^5 cells per sample, and processed as mentioned above for estimation of NeuAz expression using DBCO-Cy5 ([…]). Experiments using HL-60 cells were performed using the same procedure.
Having confirmed metabolic acceptability in Jurkat cells, the compounds were tested on HL-60 (human acute myeloid leukemia) cells which are a reliable model for neutrophil adhesion. The effect on competitive suppression of NeuAz expression was studied using 1c as a reporter. HL-60 cells were treated with 1c either alone (50 μM) or in combination with ManNAc analogues (50 μM), including the straight chain derivatives, for 24 h followed by DBCO-Cy5 ligation. […] The decreasing ability of linear alkyl moieties (1d-1g), as a function of chain length, for suppression of NeuAz expression is in contrast to the cycloalkyl moieties. […] Similarly, 1a induced a reduction of 40% compared to only a 15% reduction by 1f.

[5] = system: HL-60 cells; test: Cell surface sialyl-Lewis-X (CD15s) by anti-CD15s (CSLEX1) flow cytometry; assay type: cell-based, human; settings: 50 μM, 24 h
Protocol: Effect of ManNAc analogues on the expression of sialyl-Lewis-X and Lewis-X: HL-60 cells (3.0×10^5 cells/mL in 2.0 mL complete medium in 6 well plate) were treated with D (vehicle), 1a, 1b, 1c, 1d, 1e, 1f, or 1g (50 PM), along with untreated (U) control. After 24 h, cells were harvested and washed with PBS (3×0.5 mL, 3000×g, 3.0 min at room temperature). Prior to last wash, cells were counted using Z2 coulter counter and aliquoted at 2.5×10^5 cells per sample and stained with either mouse anti-human CD15s (CSLEX1) (1.25 μg/mL) or mouse anti-human CD15 (HI98) (2.5 μg/mL) in HEPES/CaCl2) buffer (30 mM HEPES, 110 mM NaCl, 10 mM KCl, 2 mM MgCl2, 10 mM glucose, 1.5 mM CaCl2) containing 0.1% bovine serum albumin, pH 7.3) (total volume of 100 μL) for 30 min at 4° C. Cells were washed with HEPES/CaCl2 buffer (2×0.5 mL) and stained with AlexaFluor488-conjugated anti-mouse IgM (2.5 μg/mL) (for both CD15s and CD15) in 100 μL HEPES/CaCl2 for 30 min at 4° C. Cells were washed with HEPES/CaCl2 buffer (2×0.5 mL), resuspended in PBS (0.2 mL), treated with PI (2.5 μg/ml) and analysed by BD FACSVerse. Samples treated with (i) isotype antibodies followed by secondary antibody and (ii) secondary antibody alone were prepared as controls. Single Cells were gated for PI-negative population for 10,000 events and analysed by flow cytometry. Two replicate samples were prepared for each condition and each sample was counted twice. Three independent experiments were performed. Data was analysed using FlowJo V10. For plotting graph and calculation of significant probability ‘p’ values, two-way ANOVA with Dunnett's multiple comparison tests was employed in GraphPad Prism 8.
Time course of CD15s expression: HL-60 cells (3.0×10^5 cells/mL in 2.5 mL complete medium in 6-well plates) were incubated with D, 1a, 1b, or 1d (50 mM). At each time point, from day 1 to day 6, the cells were harvested from the entire contents of the well, washed, and aliquoted to 5.0×10^5 cells per sample, and immuno-stained using anti-CD15s (CSLEX1) antibody as mentioned above. On day 3, 4, and 5 complete media (1.0 mL) was added to each remaining well in order to compensate for media exhaustion. No contents were removed from the well during the period.

[6] = system: HL-60 cells; test: Cell density as a measure of proliferation/cytotoxicity; assay type: cell-based, human; settings: 100 μM, cell density measured at 24, 48, and 72 h
[7] = system: HL-60 cells; test: Cell surface sialyl-Lewis-X (CD15s) by anti-CD15s (CSLEX1) flow cytometry; assay type: cell-based, human; settings: single dosage 50 μM
[8] = system: HL-60 cells; settings: 10 mM; cited from earlier work

CCCC(=O)N[C@@H]1[C@@H](OC(C)=O)O[C@H](COC(C)=O)[C@@H](OC(C)=O)[C@@H]1OC(C)=O [Compound 1f, 1,3,4,6-tetra-O-acetyl-2-(1-butanoyl)amino-2-deoxy-α-D-mannopyranose]
glycoside bound sialic acid levels (in words) [1]: comparable to untreated cells | inhibition of polysialic acid attachment to NCAM [2]: efficient inhibitor | sLeX (CSLEX1) bands between 150-100 kDa in western blot [3]: moderate increase | NeuAz expression with respect to 1c alone (100%) [4]: 85% | reduction of NeuAz expression with respect to controls [4]: 15% | suppression of NeuAz expression (in words) [4]: moderate suppression | increase in binding of CSLEX1 antibody (sLeX), in words [5]: three-fold increase

CCCCC(=O)N[C@@H]1C(OC(C)=O)O[C@H](COC(C)=O)[C@@H](OC(C)=O)[C@@H]1OC(C)=O (stereo partly drawn) [Compound 1g, 1,3,4,6-tetra-O-acetyl-2-(1-pentanoyl)amino-2-deoxy-D-mannopyranose]
decrease in total sialic acid levels [1]: 0.7 fold | ratio of total sialic acids to glycoside bound sialic acids vs untreated cells [1]: lower ratios | decrease in cell density [6]: ~10% | sLeX (CSLEX1) bands between 150-100 kDa in western blot [3]: moderate increase | NeuAz expression with respect to 1c alone (100%) [4]: 90% | reduction of NeuAz expression with respect to controls [4]: 10% | suppression of NeuAz expression (in words) [4]: mild effect | increase in binding of CSLEX1 antibody (sLeX) compared to controls [5]: ~2.5 fold | maximum increase in sLeX levels on day 2 ([7]; day 2): 2.2 fold | sLeX levels by day 6 (in words) ([7]; day 6): returned to normal levels | day of peak sLeX expression ([7]; time course day 1 to day 6): 2 days

CCC(=O)N[C@@H]1C(O)O[C@H](CO)[C@@H](O)[C@@H]1O (stereo partly shown) [ManNProp]
expression of sLeX epitopes (KM93 antibody), particularly on PSGL-1/CD162 [8]: enhanced expression of sLeX epitopes
